Experimental data from patent US20070117868A1, “Use of n-arylhydrazine derivatives for combating non-crop pests” (priority 2004, published 2007).

What was measured:
Assay type in all cases: in vivo
[1] = tested on: Stomoxys calcitrans; assay: Activity via glass contact, stable fly; conditions: rate 10 ppm
Method: (§1) 1. Activity Against Argentine Ant, Harvester Ant, Acrobat Ant, Carpenter Ant, Fire Ant, House Fly, Stable Fly, Flesh Fly, Yellowfever Mosquito, House Mosquito, Malaria Mosquito, German Cockroach, Cat Flea, and Brown Dog Tick Via Glass Contact
(§2) Glass vials (20 ml scintillation vials) were treated with 0.5 ml of a solution of active ingredient in acetone. Each vial was rolled uncapped for ca. 10 minutes to allow the a.i. to completely coat the vial and to allow for full drying of the acetone. Insects or ticks were placed into each vial.

[2] = tested on: Solenopsis invicta; assay: Activity via glass contact, fire ant; conditions: rate 10 ppm
Method: as §1, §2

[3] = tested on: Solenopsis invicta; assay: Activity via soil contact, fire ant; conditions: rate 0.01 w %
Method: (§3) 2. Activity Against Argentine Ant, Acrobat Ant, Carpenter Ant, Fire Ant, and Eastern Subterranean Termite Via Soil Contact
(§4) For ants, tests were conducted in Petri dishes. A thin layer of 1% agar in water was dispensed into the dishes and Florida sandy soil was spread over the agar (5 g for the small dishes and 11 g for the larger dishes). The active ingredient was dissolved in acetone and dispensed over the sand. Dishes were vented to evaporate the acetone, infested with ants, and covered. A 20% honey water solution was placed in each dish. The dishes were maintained at 22° C. and observed for mortality at various time intervals.

[4] = tested on: Camponotus floridanus; assay: Activity via glass contact, carpenter ant; conditions: rate 10 ppm
Method: as §1, §2

[5] = tested on: Anopheles albimanus; assay: Activity via water treatment, malaria mosquito larvae; conditions: rate 1.0 ppm
Method: (§5) 4. Activity Against Yellowfever Mosquito, Southern House Mosquito, and Malaria Mosquito Larvae Via Water Treatment
(§6) Well plates were used as test arenas. The active ingredient was dissolved in acetone and diluted with water to obtain the concentrations needed. The final solutions containing appr. 1% acetone were placed into each well. Approximately 10 mosquito larvae (4th-instars) in 1 ml water were added to each well. Larvae were fed one drop of liver powder each day. The dishes were covered and maintained at 22° C. Mortality was recorded daily and dead larvae and live or dead pupae were removed daily. At the end of the test remaining live larvae were recorded and percent mortality was calculated.

[6] = tested on: Ctenocephalides felis; assay: Activity via glass contact, cat flea; conditions: rate 100 ppm
Method: as §1, §2

[7] = tested on: Coptotermes formosanus; assay: Activity via bait (treated filter paper), Formosan termite; conditions: rate 0.1 w %
Method: (§7) 3. Activity Against Argentine Ant, Acrobat Ant, Carpenter Ant, Fire Ant, House Fly, Eastern Subterranean Termite, Formosan Subterranean Termite, and German Cockroach Via Bait
For termites, active ingredient in acetone was applied to filter papers. % a.i. were calculated on basis of the weight of the filter paper. Acetone only was applied for untreated controls. Treated papers were vented to evaporate the acetone, moistened with […], and placed Petri dishes with sand. Water was added during the test as needed. Bioassays were conducted with one treated filter and ca. 30 termite workers per test dish. Test dishes were maintained at 25° C. and appr. 85% relative humidity and observed daily for mortality (dead or moribund insects) or intoxication. Dead or moribund insects were removed daily.

[8] = tested on: Crematogaster spp.; assay: Activity via soil contact, acrobat ant; conditions: rate 0.01 w %
Method: as §3, §4

[9] = tested on: Musca domestica; assay: Activity via glass contact, house fly; conditions: rate 10 ppm
Method: as §1, §2

[10] = tested on: Culex quinquefasciatus; assay: Activity via water treatment, house mosquito larvae; conditions: rate 10 ppm
Method: as §5, §6

[11] = tested on: Aedes aegypti; assay: Activity via water treatment, yellowfever mosquito larvae; conditions: rate 10 ppm
Method: as §5, §6

[12] = tested on: Sarcophaga sp.; assay: Activity via glass contact, flesh fly; conditions: rate 10 ppm
Method: as §1, §2

[13] = tested on: Musca domestica; assay: Activity via bait, house fly; conditions: rate 0.1 w %
Method: as §7
For house flies. Bait tests were conducted with adults aged 2-5 days post-emergence. Active ingredient in acetone was applied to a bait matrix consisting of a 1:1 mixture of powdered milk and sugar which was then allowed to dry. Assays were conducted in jars with 250 mg of bait in a pan placed in the bottom of each jar. House flies were placed into the bait jars which were covered. The test jars were held at 22° C.

[14] = tested on: Camponotus floridanus; assay: Activity via soil contact, carpenter ant; conditions: rate 0.01 w %
Method: as §3, §4

[15] = tested on: Solenopsis invicta; assay: Activity via bait (corn grit), fire ant; conditions: rate 0.7 w %
Method: as §7
For the fire ants, corn grit was used as a bait matrix. […] Petri dishes were supplied with a water source. Fire ant adults were placed into each dish. The next day, 250 mg of bait in bait containers was placed into the dishes.

[16] = tested on: Culex quinquefasciatus; assay: Activity via glass contact, house mosquito; conditions: rate 0.5 ppm
Method: as §1, §2

[17] = tested on: Anopheles albimanus; assay: Activity via glass contact, malaria mosquito; conditions: rate 1 ppm
Method: as §1, §2

[18] = tested on: Aedes aegypti; assay: Activity via glass contact, yellowfever mosquito; conditions: rate 10 ppm
Method: as §1, §2

Measured: Days or Hours to achieve 100% mortality

CCN/C(=N\Nc1c(Cl)cc(C(F)(F)F)cc1Cl)C1(C)CC1(Cl)Cl (stereo not drawn) [Compound I-2, N-Ethyl-2,2-dichloro-1-methylcyclopropanecarboxamide-2-(2,6-dichloro-α,α,α-tri-fluoro-p-tolyl)hydrazone]
2 days: [6] | [8] | [11]
3 h: [13]
5 days: [7]
1 days: [3] | [4] | [5] | [10] | [14] | [17]
3 days: [15]
4 h: all other assays above

CCN/C(=N\Nc1c(Cl)cc(C(F)(F)F)cc1Cl)C(C)(C)C [Compound I-1, N-ethyl-2,2-dimethylpropionamide-2-(2,6-dichloro-α,α,α-trifluoro-p-tolyl)-hydrazone]
3 days: [15]
5 days: [7]
2 days: [6] | [8] | [11]
3 h: [13]
4 h: [1] | [2] | [9] | [12] | [16] | [18]
1 days: all other assays above
